{
  "source": "patent US20090317335A1",
  "about": "“Hybrid Nanomaterials as Multimodal Imaging Contrast Agents” (priority 2006, published 2009)",
  "test": "MR relaxivity (T1/T2) on 3.0 Tesla MRI scanner",
  "format": "physicochemical",
  "method": "Thermogravimetric analysis (TGA) was performed using a Shimadzu TGA-50 (Shimadzu Corp., Kyoto, Japan) equipped with a platinum pan and heated at a rate of 3° C./min under air. A Hitachi 4700 field emission scanning electron microscope (SEM; Hitachi Ltd., Tokyo, Japan) and a JEM 100CX-II transmission electron microscope (JEOL Ltd., Tokyo, Japan) were used to determine particle size and morphology. Scanning electron microscope (SEM) images of the nanoparticles were taken on glass substrate. A Cressington 108 Auto Sputter Coater (Cressington Scientific Instruments, Ltd., Watford, United Kingdom) equipped with an Au/Pd (80/20) target and M™-10 thickness monitor was used to coat the sample with approximately 5 nm of conductive layer before taking SEM images. Gd^3+ ion concentration was measured on a SpectraSpan7 Direct Current Plasma (DCP) Spectrometer (Applied Research Laboratories, La Brea, Calif., United States of America). […] T1 and T2 values were determined on a Bruker 3.0 Tesla full body Magnetic Resonance Imaging (MRI) scanner (Bruker BioSpin MRI GmbH, Ettlingen, Germany). […] Fluorescence microscope images were taken with a Zeiss Axiovert 100 TV Fluorescence Microscope (Carl Zeiss, Inc., Thornwood, N.Y., United States of America) using a FITC filter. T1 values were obtained using the standard inversion-recovery method, whereas T2 values were determined using spin-echo pulse sequences. […]",
  "data": [
    {"substance": "bis(aminopropyl-triethoxysilyl)diethylenetriamine pentaacetate gadodiamide [Gd—Si-DTPA complex]", "values": [
      {"measurement": "longitudinal relaxivity (r1)", "setting": "per mM of Gd^3+ (metal ion), 3.0 Tesla scanner, water or 0.1% Xanthan gum", "result": 6.2, "unit": "s⁻¹"}
    ]},
    {"substance": "gadolinium (aminopropyltrimethoxysilyl) diethylenetriamine tetraacetate [Gd—Si-DTTA complex]", "values": [
      {"measurement": "r1", "setting": "molecular complex, for comparison with 1", "result": 6.8, "unit": "s^−1 mM^−1 Gd^3+"}
    ]}
  ]
}
